Reference: patent US12163161B2, “In vitro method for identifying thoracic aortic aneurysms (TAA) in a subject” (CENTRO NACIONAL DE INVESTIGACIONES CARDIOVASCULARES CARLOS …, priority 2016, dated 2024)
One block for each compound: values may come before it.

Assays:
[1] = test system: siAdamts1-transduced C57BL/6 mice; test: Aortopathy induced by siAdamts1 lentivirus (aortic Adamts1 knockdown) in C57BL/6 mice; type: in vivo, mouse; settings: for Elastic fiber fragmentation (elastolysis, elastin breaks) / Fibrosis (collagen content): aortic sections, end of experiment; for Aortic dilation (AsAo and AbAo diameter) induced by siAdamts1: anti-TGFβ 10 mg/kg i.p. 3 times per week, L-NAME 0.5 mg/ml in drinking water; for Systolic and diastolic BP (hypotension) in siAdamts1-transduced mice: same treatments as E4
Source text: (§1) Animal procedures were approved by the CNIC Ethics Committee and conformed to European Union guidelines for the care and experimental use of animals. Adamts1+/− mice were obtained from the European Mouse Mutant Archive [(EM:02291) B6; 129P2-Adamts1<tm1Dgen>/H] and carried a LacZ-Neo cassette to replace a genomic sequence (c7784) between exon1 and 2 in the Adamts1 target allele. Fbn1C1039G/+ mice (Judge et al., 2004), harboring a mutation in the Fbn1 gene, and Nos2−/− mice (Laubach et al., 1995) were obtained from Jackson Laboratories (JAX mice stock #012885 and 007072, respectively). These 3 strains had been previously backcrossed to C57BL/6 for more than nine generations. All mice were genotyped by PCR of tail samples using the following primers: Adamts1 mice (5′-[…]-3′(SEQ ID NO: 5), 5′-[…] (SEQ ID NO: 6)/[…]-3′ (SEQ ID NO: 7)); Nos2−/− mice (5′[…] 3′ (SEQ ID NO: 8); 5′ […] 3′(SEQ ID NO: 9), 5′ […] 3′) (SEQ ID NO: 10); Fbn1C1039G/+ mice (5′CTCATCATTTTTGGCCAGTTG 3′ (SEQ ID NO: 11), 5′GCACTTGATGCACATTCACA 3′ (SEQ ID NO: 12)). Wild-type littermates were used as controls unless otherwise specified. Mice were treated with Ang-II (Sigma-Aldrich) at 1 μg/kg/min or losartan (Sigma Aldrich) at 10 mg/kg/day using subcutaneous osmotic minipumps (Alzet Corp). The monoclonal pan-antibody against TGFβ1, 2, 3 clone 1D11 (BioXcell) was injected intraperitoneally 3 times per week at 10 mg/kg.
(§2) Arterial blood pressure (BP) was measured in mouse tails using the automated BP-2000 Blood Pressure Analysis System (Visitech Systems, Apex, NC, USA). In brief, mice were trained for BP measurements every day for one week. After training, BP was measured one day before treatment or before lentiviral infection to determine the baseline BP values in each mouse cohort. Measurements were repeated several times during experiments. BP measurements were recorded in mice located in a tail-cuff restrainer, over a warmed surface (37° C.). Fifteen consecutive systolic and diastolic BP measurements were made, and the last ten readings per mouse were recorded and averaged.
(§3) For in vivo ultrasound images, the aortic diameter was monitored in isofluorane-anesthetized mice (2% isofluorane) by high-frequency ultrasound with a VEVO 2100 echography device (VisualSonics, Toronto, Canada). Maximal internal diameters of aortic images were measured using VEVO 2100 software, version 1.5.0. All recordings were made by a cardiologist and a technician who were blinded to animal genotype and treatment. Measurements were taken before lentivirus administration or the corresponding treatments to determine the baseline diameters, and measurements were repeated several times during the experiment.
For in vivo transduction experiments, animals were anesthetized (ketamine/xilacine) and a small incision was made to expose the right jugular vein (Esteban et al., 2011). Virus solution ([…] in PBS) was inoculated directly into the right jugular vein 3 weeks before Ang-II mini-pump implantation or one day before monitoring of aortic dilation. Transduction efficiency was analyzed in aortic samples by immunohistochemistry for GFP and Adamts1.
(§4) Images of Masson's trichrome and EVG staining were analyzed for collagen content with ImageJ (http://rsbweb.nih.gov/ij/index.html) and with MetaMorph (Molecular Devices; Sunnyvale, California) for quantification of elastin breaks. For each animal, elastin breaks were counted in 3 sections and the mean number of breaks was calculated. Images were processed for presentation with Photoshop and Illustrator (Adobe). […]
Aortic extracts were prepared from whole aortas as described for immunoblot assays, but in the absence of DTT. Extracts (15 μg) were fractionated under nonreducing conditions on SDS-polyacrylamide gels containing 1% gelatin. […]

[2] = test system: Adamts1+/− mice; test: Treatment of Adamts1+/− mice (aortic diameter, BP, histology); type: in vivo, mouse
Source text: as §1, §2, §3
Images of Masson's trichrome and EVG staining were analyzed for collagen content with ImageJ (http://rsbweb.nih.gov/ij/index.html) and with MetaMorph (Molecular Devices; Sunnyvale, California) for quantification of elastin breaks. For each animal, elastin breaks were counted in 3 sections and the mean number of breaks was calculated. Images were processed for presentation with Photoshop and Illustrator (Adobe).

[3] = test system: Fbn1C1039G/+ mice; test: Treatment of Fbn1C1039G/+ mice (Marfan syndrome model); type: in vivo, mouse
Source text: as §1, §2
(§5) For in vivo ultrasound images, the aortic diameter was monitored in isofluorane-anesthetized mice (2% isofluorane) by high-frequency ultrasound with a VEVO 2100 echography device (VisualSonics, Toronto, Canada). Maximal internal diameters of aortic images were measured using VEVO 2100 software, version 1.5.0. […]
as §4, with “calculated.” for “calculated. Images were processed for presentation with Photoshop and Illustrator (Adobe).”

[4] = biological target: T1, Nos2 (Mus musculus, UniProt P29477); test: NO / total NOx production in VSMCs transduced with siAdamts1 and treated with Nos2 inhibitors; type: cell-based; settings: FIG. 16: 1400W (2 μm), AG, GW273629 (20 μm), 1-NIL (3 mM), Clotrimazole (20 μM)
T1 construct: endogenous in cells; host or cells: primary mouse VSMCs transduced with siCtl or siAdamts1 lentivirus
Method: FIG. 17. Representative images (n=4) of NO production (red) and GFP fluorescence (green) in unfixed VSMCs transduced with siCtl or siAdamts1 and treated with the Nos2 inhibitors as indicated. Bar, 50 μm.
Mouse vascular smooth muscle cells (VSMCs) were isolated and grown as described (Esteban et al., 2011). All experiments were performed during passages 3-7. VSMCs were infected at a multiplicity of infection (MOI)=3 over 5 h. The medium was then replaced with fresh DMEM supplemented with 10% FBS, and cells were cultured for 3 more days, serum-starved for 48 h and then stimulated with Ang-II for 6 h for protein assays or 4 h for mRNA expression analysis.

[5] = test system: mouse model of mild MFS; settings: cited from earlier work
[6] = test system: model of severe MFS; settings: compared with mild MFS model; cited from earlier work
[7] = test system: aortic root enlargement; settings: randomized clinical trials, cited from earlier work
[8] = biological target: NOS2 (Homo sapiens, UniProt P35228); settings: as reported previously; cited from earlier work
NOS2, sequence (P35228 whole entry): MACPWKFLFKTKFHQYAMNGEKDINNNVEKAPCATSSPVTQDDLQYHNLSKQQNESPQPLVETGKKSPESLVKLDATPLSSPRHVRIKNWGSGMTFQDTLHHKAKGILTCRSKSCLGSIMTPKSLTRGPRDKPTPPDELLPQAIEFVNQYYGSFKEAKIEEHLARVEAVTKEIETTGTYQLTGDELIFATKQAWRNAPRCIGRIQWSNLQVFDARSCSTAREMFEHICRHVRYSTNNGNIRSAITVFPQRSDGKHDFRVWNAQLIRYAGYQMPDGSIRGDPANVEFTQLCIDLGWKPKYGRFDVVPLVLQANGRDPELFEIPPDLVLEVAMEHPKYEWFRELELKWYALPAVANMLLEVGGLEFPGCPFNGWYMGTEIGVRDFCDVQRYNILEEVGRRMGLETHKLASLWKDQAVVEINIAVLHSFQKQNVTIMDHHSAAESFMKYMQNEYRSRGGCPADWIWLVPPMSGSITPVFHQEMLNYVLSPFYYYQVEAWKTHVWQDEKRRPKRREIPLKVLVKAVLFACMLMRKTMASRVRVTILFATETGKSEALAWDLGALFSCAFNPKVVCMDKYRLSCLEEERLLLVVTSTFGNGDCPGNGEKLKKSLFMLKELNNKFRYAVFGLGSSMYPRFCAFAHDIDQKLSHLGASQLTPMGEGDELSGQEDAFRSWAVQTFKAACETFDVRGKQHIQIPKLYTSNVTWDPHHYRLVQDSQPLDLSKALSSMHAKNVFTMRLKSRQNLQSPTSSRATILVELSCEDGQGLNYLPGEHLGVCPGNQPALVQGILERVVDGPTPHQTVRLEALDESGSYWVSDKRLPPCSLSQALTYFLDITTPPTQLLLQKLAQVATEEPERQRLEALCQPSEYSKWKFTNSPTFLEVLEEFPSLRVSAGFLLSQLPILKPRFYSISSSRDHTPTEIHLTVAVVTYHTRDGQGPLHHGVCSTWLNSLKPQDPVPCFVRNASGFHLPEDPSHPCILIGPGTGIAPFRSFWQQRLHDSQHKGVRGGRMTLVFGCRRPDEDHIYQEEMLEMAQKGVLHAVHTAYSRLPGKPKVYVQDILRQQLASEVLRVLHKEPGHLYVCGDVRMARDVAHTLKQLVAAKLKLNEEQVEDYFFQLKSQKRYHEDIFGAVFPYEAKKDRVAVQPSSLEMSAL

[9] = test system: wt mice; test: Ang-II treatment of wt mice for 28 days (ultrasonography of aorta); type: in vivo, mouse
Source text: Animal procedures were approved by the CNIC Ethics Committee and conformed to European Union guidelines for the care and experimental use of animals. Adamts1+/− mice were obtained from the European Mouse Mutant Archive [(EM:02291) B6; 129P2-Adamts1<tm1Dgen>/H] and carried a LacZ-Neo cassette to replace a genomic sequence (c7784) between exon1 and 2 in the Adamts1 target allele. Fbn1C1039G/+ mice (Judge et al., 2004), harboring a mutation in the Fbn1 gene, and Nos2−/− mice (Laubach et al., 1995) were obtained from Jackson Laboratories (JAX mice stock #012885 and 007072, respectively). These 3 strains had been previously backcrossed to C57BL/6 for more than nine generations. […]
as §5
To investigate the contribution of Adamts1 to Ang-II-elicited aortic dilation and aneurysm, we used Adamts1 deficient mice from the European Mouse Mutant Archive (EM: 02291). […] No aneurysms or lethal dissections were detected in Adamts1+/− mice in the absence of Ang-II at this age.

[10] = L-NAME 21 days, end of experiment

NO production (total NOx in conditioned media, NO staining) [4]: reduced the expression of NO
Compound: COC(=O)[C@@H](N)CCCNC(=N)N[N+](=O)[O-].Cl [L-NAME, Nω-Nitro-L-arginine methyl ester hydrochloride]
Mmp9 activation (zymography) ([1]; aortic extracts from siAdamts1-transduced mice): prevented Mmp9 activation | Elastic fiber fragmentation (elastolysis, elastin breaks) [1]: blocked elastolysis | Fibrosis (collagen content) [1]: decreased the fibrosis | Aortic dilation (AsAo and AbAo diameter) induced by siAdamts1 ([1]; losartan 10 mg/kg/day minipump): prevented siAdamts1-induced dilation of the AsAo and the AbAo | Systolic and diastolic BP (hypotension) in siAdamts1-transduced mice [1]: hypertensive effect | Time to complete reversal of aortic dilation ([2]; Adamts1+/− and MFS mice): 1 week | Elastic fiber fragmentation [2, 10]: decreased elastic fiber fragmentation | Fibrosis (collagen content) [2, 10]: diminished fibrosis | AsAo and AbAo diameter ([2]; L-NAME in drinking water for 21 days): rapidly decreased AsAo and AbAo diameter to normal levels | Systolic and diastolic BP ([2]; L-NAME in drinking water for 21 days, end of experiment): reverted the systolic and diastolic hypotension | AsAo and AbAo diameters ([3]; 12-week-old mice, L-NAME in drinking water for 21 days): rapidly decreased the AsAo and AbAo diameters to normal levels | Collagen content ([3]; L-NAME 21 days, AsAo and AbAo): unaffected | Elastic fiber fragmentation [3, 10]: diminished elastic fiber fragmentation | Systolic and diastolic BP [3, 10]: augmented the systolic and diastolic BP

NO production (total NOx in conditioned media, NO staining) [4]: reduced the expression of NO
Compound: CC(=N)NCc1cccc(CN)c1 [1400W]

NO production (total NOx in conditioned media, NO staining) [4]: reduced the expression of NO
Compound: CC(=N)NCCS(=O)(=O)CC(N)C(=O)O (centres unmarked) [GW273629]

Compound: CCCCc1nc(Cl)c(CO)n1Cc1ccc(-c2ccccc2-c2nn[nH]n2)cc1 [losartan]
Elastic fiber fragmentation (elastolysis, elastin breaks) [1]: did not reduce elastic fiber fragmentation | Fibrosis (collagen content) [1]: did not reduce elastic fiber fragmentation or fibrosis | Aortic dilation (AsAo and AbAo diameter) induced by siAdamts1 ([1]; losartan 10 mg/kg/day minipump): neither treatment inhibited aortic dilation | Systolic and diastolic BP (hypotension) in siAdamts1-transduced mice [1]: did not prevent hypotension | BP in control mice ([1]; siCtl control mice, losartan 10 mg/kg/day minipump): reduced BP in control mice | Aortic dilation [5]: these processes are also inhibited | Elastic lamellae fragmentation [5]: these processes are also inhibited | Effectiveness in severe MFS model [6]: less effective | Reduction of the rate of aortic root enlargement ([7]; versus atenolol): no more effective | Benefit of dual therapy with atenolol [7]: no additional benefit

NO production (total NOx in conditioned media, NO staining) [4]: reduced the expression of NO
Compound: Clc1ccccc1C(c1ccccc1)(c1ccccc1)n1ccnc1 [Clotrimazole]
Dimerization of NOS2 [8]: inhibits the dimerization of NOS2

Compound: Angiotensin-II (DRVYIHPF; Angiotensin-2; UniProt P01019 25-32, looked up) [Ang-II]
AA or lethal aortic dissections ([2]; Adamts1+/− mice, Ang-II 28 days): readily triggered their formation | Aortic dilation (AR, AsAo, AbAo) ([9]; 8-week-old wt mice, Ang-II for 28 days, 1 μg/kg/min minipump): promoted generalized aortic dilation | AA or lethal aortic dissections ([9]; wt mice, Ang-II 28 days): barely induced AA or lethal aortic dissections

NO production (total NOx in conditioned media, NO staining) [4]: reduced the expression of NO
Compound: Aminoguanidine
Aortic diameter (ascending and abdominal aorta) ([2]; AG 1.5 gr/1 in drinking water): reduces aortic diameter

NO production (total NOx in conditioned media, NO staining) [4]: reduced the expression of NO
Compound: CC(=N)NCCCC[C@H](N)C(=O)O [L-NIL]
